The results in this text go back to paper PMC4757768, “Mechanisms of amphetamine action illuminated through optical monitoring of dopamine synaptic vesicles in Drosophila brain” (Nature Communications, 2016).

This assay addresses T1, VMAT2 (Rattus norvegicus, UniProt Q01827).
T1 construct: gene Slc18a2
Description: inhibition of [3H]dopamine uptake in digitonin-treated HEK293 cells stably expressing rat VMAT2; binding Ki […] at mammalian VMAT2 also reported. Format: cell-based.

T1 sequence (Q01827 whole entry): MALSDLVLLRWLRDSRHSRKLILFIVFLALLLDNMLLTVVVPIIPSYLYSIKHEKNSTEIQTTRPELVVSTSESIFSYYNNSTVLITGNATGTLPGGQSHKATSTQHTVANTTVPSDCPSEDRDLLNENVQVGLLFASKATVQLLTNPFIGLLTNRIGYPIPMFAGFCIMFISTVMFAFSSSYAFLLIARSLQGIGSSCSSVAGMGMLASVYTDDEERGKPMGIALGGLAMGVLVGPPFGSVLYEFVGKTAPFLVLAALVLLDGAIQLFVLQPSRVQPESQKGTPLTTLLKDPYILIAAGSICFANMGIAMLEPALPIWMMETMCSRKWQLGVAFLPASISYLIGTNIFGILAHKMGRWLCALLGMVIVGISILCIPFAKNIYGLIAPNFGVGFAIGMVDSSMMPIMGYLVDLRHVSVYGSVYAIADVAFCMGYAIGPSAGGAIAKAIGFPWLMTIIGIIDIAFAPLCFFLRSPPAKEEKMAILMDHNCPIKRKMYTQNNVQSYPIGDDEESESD

Usually IC50 stands for the concentration that gives 50% inhibition. Read a high IC50 as a need for much substance. The compound `COc1cc2c(cc1O)[C@H]1CC(=O)[C@H](CC(C)C)CN1CC2` [(+)-CYY477] had an IC50 of 26 nM.
